Legend:
Type in all cases: cell-based, human
[1] = test system: HCT116 cells; test: β-gal positive foci in pCAROF-transfected MMR defective cells exposed to chemical mutagen; details: 10 μM for 8 hours, 1,000 cells/plate, grown 10 days, triplicate
Excerpt: To enhance the rate of genetic mutations and produce cells with altered genes, RNA expression, or polypeptides, the use of MMR deficiency and chemical mutagens is a powerful tool to generate such diversity. The advantages of using MMR defective cells is that the decrease of this activity renders cells more resistant to the toxic effects of such compounds yet allows for the increase in genetic and phenotypic alterations of a host organism or cell. […] Cells that are genetically defective for MMR such as but not limited to HCT116, DLD-1, etc. or cells such as those described in example 1 and 2 that are made MMR defective by ectopic expression of a dominant negative allele is covered under this invention. Briefly, MMR proficient and deficient cells are incubated with a range (1 nm to 1 mM) of chemical mutagens for 1 hour to 24 hours at 37 C at 5% CO2 in growth medium. After incubation is complete, chemical mutagens are washed from medium and cells are grown in the presence of hypoxanthine, aminopterin, and […] to score for HPRT mutant cells as previously described (Walker, V E et. al. Mutat Res. 17:371-388, 1999.) and known to those skilled in the art. […] After 14 days, the numbers of HAT-resistant colonies are determined by counting under the microscope. […] Cells were grown for 10 days and scored for β-gal activity using methods described in EXAMPLE 1. […]

[2] = test system: HCT116 cells expressing PNP; test: MPD killing assay; details: 50-300 μM, 10 days
Excerpt: (§1) The use of cells with defective MMR repair due to defects of endogenous genes such as but not limited to the HCT116, DLD-1, and HEC-1-A cells lines (ref. 12, 25 and Kondo, et. al. J Biochem 125:818-825, 1999) can be useful for altering the genetic structure of genes to produce commercially viable variant molecules such as novel anti-microbial agents, bioactive growth factors or hormones, altered antibody structures, etc. The utility and value of such a cell is that once an altered gene structure has been produced, the integrity of this gene alteration can be preserved in the cell's genome by making the cell genetically stable via the introduction of a functional complementing MMR gene. […] The polyPNP gene encodes for a non-functional PNP gene. When the poly-A tract is randomly altered by genetic alterations due to defective MMR, the tract is randomly altered, allowing for the production of a functional PNP gene and polypeptide. PNP converts the non-toxic 9-(β-D-2-deoxy-erythro-pento-furanosyl)-6-methyl-purine prodrug (referred to as MPD) substrate to the toxic 6-methyl purine analog (referred to as MP) (Sorscher, E J, et. al. Gene Therapy 1:233-238, 1994). The polyPNP gene was engineered to contain a hemaglutinin epitope tag at the C-terminus to facilitate the detection of the encoded polypeptide via western blot analysis using an anti-HA antibody. The polyPNP gene was cloned into the pCEP4 expression vector, which has a hygromycin resistance (Hyg) gene for selection. A homologous gene called PNP was also made in which an in-frame polyA tract is cloned into the N-terminus of the gene as a positive control for PNP activity. Briefly, the MMR defective HCT116 cell line and the MMR proficient HEK293 cell line were transfected with the polyPNP, the PNP expression vector, or an empty pCEP4 vector. Cells were then selected for Hyg resistance and clones were isolated. Expanded cells were grown in the presence of increasing amounts of MPD (0, 1, 10, 50, 100, 300 μM) for 10 days. After treatment period, cells were counted by hemocytometer and trypan blue exclusion.
(§2) Cells were transfected with PNP and/or MLH1 expression vectors using liposomes following the manufacturer's protocol (Gibco/BRL). Stably transfected cell lines were generated that express empty vector, PNP or polyPNP by transfection followed by hygromycin selection. For complementation experiments, HCT116 cells were transfected with PNP/MLH1, PNP/MLH1stop, polyPNP/MLH1 or polyPNP/MLH1 stop at a 1:1 ratio using 5 μg of each plasmid and cells were selected for hygromycin and neomycin resistance. After 10 days, drug-resistant colonies were observed and picked for analysis.
(§3) For MPD killing assay, cells were plated at 2×10^4 cell/ml and 1 ml aliquots were plated in 24-well costar tissue culture dishes. For killing assays, cells were plated in 0, 1, 10, 50, 100, and 300 μM MPD in triplicate. Cells were grown for 10 days trypsinized and counted on hemocytometer using trypan blue exclusion. Data are presented as a mean+/−SD for each study.

[3] = test system: HCT116/polyPNP cells; test: MPD killing assay; details: 10 days
Excerpt: as §1, §2, §3

[4] = test system: HEK293 cells expressing PNP; test: MPD killing assay; details: 50-300 μM, 10 days
Excerpt: as §1, §2, §3

[5] = test system: HEK293/polyPNP cells; test: MPD killing assay; details: highest concentration (300 μM), 10 days
Excerpt: as §1, §2, §3

[6] = test system: HCT116 cells cotransfected with polyPNP and pC9MLH constructs; test: MPD killing assay, MLH1 complementation; details: 300 μM
Excerpt: The restoration of genetic stability and the subsequent imprint of an altered gene locus or loci is an important invention of this application for producing viable biological products, whereby altered biomolecules, cells or whole organisms with desired altered output traits are made genetically stable for long term use. To generate stable MMR defective cell lines that has or has not been exposed to chemical mutagens and selected for desired genetic changes, the introduction of a complementing MMR gene that can substitute for the mutated endogenous MMR gene locus is taught in this application. […] In this example, a mammalian expression vector is used that encodes for the functional MLH1 polypeptide (pC9MLH1) or an expression vector that encodes for a MLH1 cDNA with a premature stop codon (pC9MLHstop). These expression vectors contain a neomycin (neo) resistance gene that allows for selection of cells containing this vector. […] Cells were selected for 10 days in neo and Hyg and resistant clones were isolated and expanded. Cells were then cultured in the presence of MPD and counted for growth after 10 days. […]
For MPD killing assay, cells were plated at 2×10^4 cell/ml and 1 ml aliquots were plated in 24-well costar tissue culture dishes. […] Cells were grown for 10 days trypsinized and counted on hemocytometer using trypan blue exclusion. […]

## CCOS(C)(=O)=O [EMS, ethyl methanesulfonate]
[1]
  number of β-gal positive foci: 205+/−18 per dish

## Cc1ncnc2c1ncn2[C@H]1C[C@H](O)[C@@H](CO)O1 [MPD, 9-(β-D-2-deoxyerythropentofuranosyl)-6-methyl-purine]
[2]
  growth suppression: 100%
[3]; 100 μM
  decrease in cell numbers: 20%
[3]; 300 μM
  decrease in cell numbers: 30%
[4]
  growth suppression: 100%
[5]
  decrease in cell growth (in words): no decrease in cell growth
[6]; cells expressing MLH1 (pC9MLH1) plus polyPNP
  decrease in total cell growth compared to medium alone: 2%
[6]; cells transfected with MLHstop or empty vector and polyPNP
  reduction in cell growth compared to medium alone: 35%

Source: patent publication US20090137427A1, “Method for generating hypermutable organisms” (The John Hopkins University School of Medicine, priority 2000, published 2009)
